Assay results: the NIST ThermoML archive (doi:10.1016/j.fluid.2011.02.008)
Values joined by “and” are separate entries in the source; they are usually repeats but may differ in a detail not shown here. Identical values can stand only once. ± gives the expanded uncertainty stated by the source.

Conditions: Liquid, Closed cell (Static) method

## O=S=O [sulfur dioxide]
343.15 K
  vapor or sublimation pressure: 1479 ± 5 kPa and 1469 ± 24 kPa
373.15 K
  vapor or sublimation pressure: 2883 ± 9 kPa
413.15 K
  vapor or sublimation pressure: 5836 ± 18 kPa and 5978 ± 32 kPa
